Test results: US11331299B2, “Medicinal use of serrulatane diterpenes” (The University of Sydney, priority 2016, dated 2022)
Where two headings read alike, the source gives them in different places.

Tests used:
DNMT3B/DNMT3L (h) = DNMT3B/DNMT3L (h) (Homo sapiens, UniProt Q9UBC3); experiment: Epigenetic enzyme assay, DNA methyltransferases (DNMTs); assay type: biochemical
MLL3(h) complex = MLL3(h) complex (Homo sapiens, UniProt Q8NEZ4); experiment: Epigenetic enzyme assay, Methyltransferases (MTs); assay type: biochemical
MLL4(h) complex = experiment: Epigenetic enzyme assay, Methyltransferases (MTs); assay type: biochemical, human
ATAD2B (h) bromodomain = molecular target: T1, ATAD2B (h) bromodomain (Homo sapiens, UniProt Q9ULI0); experiment: Epigenetic binding assay, Bromodomain; settings: 10 μM; read-out: % Inhibition of Control Specific Binding
T1 construct: ATAD2B bromodomain; host or cells: E. coli
T1 sequence (Q9ULI0 951-1066 limits assumed): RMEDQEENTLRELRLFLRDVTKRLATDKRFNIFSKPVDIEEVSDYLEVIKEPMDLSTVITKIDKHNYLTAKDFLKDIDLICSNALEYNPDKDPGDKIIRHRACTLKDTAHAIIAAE

BRPF1-1 (h) bromodomain = molecular target: T2, BRPF1-1 (h) bromodomain (Homo sapiens, UniProt P55201); experiment: Epigenetic binding assay, Bromodomain; settings: 10 μM; read-out: % Inhibition of Control Specific Binding
T2 construct: Bromodomain
T2 sequence (P55201 628-732 limits assumed): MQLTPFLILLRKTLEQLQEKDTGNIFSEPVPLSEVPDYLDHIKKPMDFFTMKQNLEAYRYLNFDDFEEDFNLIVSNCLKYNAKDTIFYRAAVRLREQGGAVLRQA

EP300 (h) bromodomain = molecular target: T3, EP300 (h) bromodomain (Homo sapiens, UniProt Q09472); experiment: Epigenetic binding assay, Bromodomain; settings: 10 μM; read-out: % Inhibition of Control Specific Binding
T3 construct: Bromodomain
T3 sequence (Q09472 1049-1156 limits assumed): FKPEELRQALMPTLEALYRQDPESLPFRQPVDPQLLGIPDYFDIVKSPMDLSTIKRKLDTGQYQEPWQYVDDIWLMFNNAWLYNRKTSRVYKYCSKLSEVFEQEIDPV

BRD3(1) (h) bromodomain = molecular target: T4, BRD3(1) (h) bromodomain (Homo sapiens, UniProt Q15059); experiment: Epigenetic binding assay, Bromodomain; settings: read-out: % Inhibition of Control Specific Binding
T4 construct: Bromodomain
T4 sequence (Q15059 34-140 limits assumed): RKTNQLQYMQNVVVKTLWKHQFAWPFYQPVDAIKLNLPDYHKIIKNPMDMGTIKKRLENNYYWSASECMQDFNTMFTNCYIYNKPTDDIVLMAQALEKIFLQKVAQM

CBX8 (h) chromodomain = molecular target: T5, CBX8 (h) chromodomain (Homo sapiens, UniProt Q9HC52); experiment: Epigenetic binding assay, Chromodomain; settings: read-out: % Inhibition of Control Specific Binding
T5 construct: Recognition and specificity determinants of the human cbx chromodomains; Eurofins CEREP (France), contract laboratory
T5 sequence (Q9HC52 11-69 limits assumed): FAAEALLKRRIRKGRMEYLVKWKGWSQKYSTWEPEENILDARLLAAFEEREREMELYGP

H3K4 me2 = experiment: Cell-based detection methyl modifications; settings: read-out: % Inhibition of Control Values
DNMT1 (h) = DNMT1 (h) (Homo sapiens, UniProt P26358); experiment: Epigenetic enzyme assay, DNA methyltransferases (DNMTs); assay type: biochemical; settings: read-out: % Inhibition of Control Values
Sequence of DNMT1 (h) (P26358 whole entry): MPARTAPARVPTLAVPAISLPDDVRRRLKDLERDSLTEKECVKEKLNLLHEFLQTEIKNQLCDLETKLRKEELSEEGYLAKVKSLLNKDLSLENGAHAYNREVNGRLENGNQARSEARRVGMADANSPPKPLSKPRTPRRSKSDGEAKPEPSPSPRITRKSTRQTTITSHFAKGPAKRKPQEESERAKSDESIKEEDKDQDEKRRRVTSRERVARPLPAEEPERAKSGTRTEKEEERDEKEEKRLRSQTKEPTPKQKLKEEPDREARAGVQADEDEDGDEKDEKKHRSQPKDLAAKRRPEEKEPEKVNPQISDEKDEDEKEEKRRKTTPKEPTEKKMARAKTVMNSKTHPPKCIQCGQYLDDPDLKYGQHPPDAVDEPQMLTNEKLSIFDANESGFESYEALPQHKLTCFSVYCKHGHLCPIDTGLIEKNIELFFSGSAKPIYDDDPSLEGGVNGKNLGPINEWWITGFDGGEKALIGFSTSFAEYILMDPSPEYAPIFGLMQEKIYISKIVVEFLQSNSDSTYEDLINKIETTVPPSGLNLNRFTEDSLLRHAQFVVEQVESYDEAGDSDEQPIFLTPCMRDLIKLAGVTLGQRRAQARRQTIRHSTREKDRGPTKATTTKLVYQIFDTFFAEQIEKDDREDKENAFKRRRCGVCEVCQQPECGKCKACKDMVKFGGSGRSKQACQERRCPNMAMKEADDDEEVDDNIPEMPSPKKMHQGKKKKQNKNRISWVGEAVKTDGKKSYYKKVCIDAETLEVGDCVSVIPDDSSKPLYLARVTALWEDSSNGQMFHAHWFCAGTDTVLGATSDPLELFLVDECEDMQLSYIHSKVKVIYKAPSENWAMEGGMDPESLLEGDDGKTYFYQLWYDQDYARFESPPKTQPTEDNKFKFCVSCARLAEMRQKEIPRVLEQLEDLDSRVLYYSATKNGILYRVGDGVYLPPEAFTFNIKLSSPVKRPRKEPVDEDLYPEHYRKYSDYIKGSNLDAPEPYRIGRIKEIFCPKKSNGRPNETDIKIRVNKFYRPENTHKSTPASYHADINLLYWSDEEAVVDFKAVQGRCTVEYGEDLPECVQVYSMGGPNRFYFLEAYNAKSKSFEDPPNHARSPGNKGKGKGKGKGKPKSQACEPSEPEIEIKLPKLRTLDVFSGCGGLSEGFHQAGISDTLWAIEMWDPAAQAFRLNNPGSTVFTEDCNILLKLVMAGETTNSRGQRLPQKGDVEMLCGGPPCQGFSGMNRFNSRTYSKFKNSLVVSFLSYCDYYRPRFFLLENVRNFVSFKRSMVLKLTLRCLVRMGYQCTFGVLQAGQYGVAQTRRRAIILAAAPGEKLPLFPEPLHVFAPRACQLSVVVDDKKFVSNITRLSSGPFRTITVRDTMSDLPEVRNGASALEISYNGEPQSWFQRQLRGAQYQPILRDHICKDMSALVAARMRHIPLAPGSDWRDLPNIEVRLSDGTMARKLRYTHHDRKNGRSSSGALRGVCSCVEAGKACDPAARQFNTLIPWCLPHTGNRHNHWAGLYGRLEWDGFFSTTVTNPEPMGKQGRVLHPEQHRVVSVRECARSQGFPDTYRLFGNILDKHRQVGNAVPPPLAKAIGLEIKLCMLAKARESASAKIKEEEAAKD

[1] = molecular target: T6, sirtuin 1 (h) (inhibitor effect) (Homo sapiens, UniProt Q96EB6); experiment: Epigenetic enzyme assay, Sirtuins; assay type: biochemical; settings: read-out: % Inhibition of Control Values
T6 sequence (Q96EB6 1-747): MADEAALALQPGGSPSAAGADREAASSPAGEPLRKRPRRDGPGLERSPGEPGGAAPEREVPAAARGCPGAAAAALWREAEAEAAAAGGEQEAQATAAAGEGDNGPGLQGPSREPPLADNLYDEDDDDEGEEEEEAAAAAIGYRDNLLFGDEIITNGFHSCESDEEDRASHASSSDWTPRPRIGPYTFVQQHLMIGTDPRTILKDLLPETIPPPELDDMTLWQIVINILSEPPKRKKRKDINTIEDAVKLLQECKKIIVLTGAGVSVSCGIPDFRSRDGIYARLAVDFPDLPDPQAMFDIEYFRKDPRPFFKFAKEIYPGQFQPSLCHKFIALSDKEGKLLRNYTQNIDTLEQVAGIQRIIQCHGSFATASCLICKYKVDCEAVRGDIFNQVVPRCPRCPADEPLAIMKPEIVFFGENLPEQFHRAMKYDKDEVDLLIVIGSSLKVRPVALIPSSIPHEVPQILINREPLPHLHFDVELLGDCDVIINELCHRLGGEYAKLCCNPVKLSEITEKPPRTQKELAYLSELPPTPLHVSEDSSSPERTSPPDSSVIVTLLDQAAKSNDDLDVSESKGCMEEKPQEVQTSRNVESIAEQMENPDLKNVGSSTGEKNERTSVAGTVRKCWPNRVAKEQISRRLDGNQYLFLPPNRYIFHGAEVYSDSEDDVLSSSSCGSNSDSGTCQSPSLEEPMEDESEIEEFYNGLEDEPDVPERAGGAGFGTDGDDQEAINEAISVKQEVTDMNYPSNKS

[2] = molecular target: PKBgamma/AKT3(h) (substrate histone H3 full length) (Homo sapiens, UniProt Q9Y243); experiment: Epigenetic enzyme assay, Kinases; assay type: biochemical; settings: read-out: % Inhibition of Control Values
Sequence of PKBgamma/AKT3(h) (substrate histone H3 full length) (Q9Y243 whole entry): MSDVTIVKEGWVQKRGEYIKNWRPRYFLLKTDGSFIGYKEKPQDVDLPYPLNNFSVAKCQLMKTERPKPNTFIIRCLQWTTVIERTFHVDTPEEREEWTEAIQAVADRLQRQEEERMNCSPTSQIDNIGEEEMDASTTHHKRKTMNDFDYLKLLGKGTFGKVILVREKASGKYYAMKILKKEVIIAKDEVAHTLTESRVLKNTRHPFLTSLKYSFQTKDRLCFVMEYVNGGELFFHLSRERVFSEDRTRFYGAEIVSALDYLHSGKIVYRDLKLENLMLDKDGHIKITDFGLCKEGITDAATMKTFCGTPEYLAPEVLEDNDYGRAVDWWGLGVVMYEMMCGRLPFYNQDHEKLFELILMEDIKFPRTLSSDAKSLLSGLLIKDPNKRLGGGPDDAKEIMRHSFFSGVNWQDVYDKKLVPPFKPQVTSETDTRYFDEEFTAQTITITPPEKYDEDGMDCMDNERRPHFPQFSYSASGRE

[3] = molecular target: Rsk2(h) (substrate histone H3 full length) (Homo sapiens, UniProt P51812); experiment: Epigenetic enzyme assay, Kinases; assay type: biochemical; settings: read-out: % Inhibition of Control Values
Sequence of Rsk2(h) (substrate histone H3 full length) (P51812 whole entry): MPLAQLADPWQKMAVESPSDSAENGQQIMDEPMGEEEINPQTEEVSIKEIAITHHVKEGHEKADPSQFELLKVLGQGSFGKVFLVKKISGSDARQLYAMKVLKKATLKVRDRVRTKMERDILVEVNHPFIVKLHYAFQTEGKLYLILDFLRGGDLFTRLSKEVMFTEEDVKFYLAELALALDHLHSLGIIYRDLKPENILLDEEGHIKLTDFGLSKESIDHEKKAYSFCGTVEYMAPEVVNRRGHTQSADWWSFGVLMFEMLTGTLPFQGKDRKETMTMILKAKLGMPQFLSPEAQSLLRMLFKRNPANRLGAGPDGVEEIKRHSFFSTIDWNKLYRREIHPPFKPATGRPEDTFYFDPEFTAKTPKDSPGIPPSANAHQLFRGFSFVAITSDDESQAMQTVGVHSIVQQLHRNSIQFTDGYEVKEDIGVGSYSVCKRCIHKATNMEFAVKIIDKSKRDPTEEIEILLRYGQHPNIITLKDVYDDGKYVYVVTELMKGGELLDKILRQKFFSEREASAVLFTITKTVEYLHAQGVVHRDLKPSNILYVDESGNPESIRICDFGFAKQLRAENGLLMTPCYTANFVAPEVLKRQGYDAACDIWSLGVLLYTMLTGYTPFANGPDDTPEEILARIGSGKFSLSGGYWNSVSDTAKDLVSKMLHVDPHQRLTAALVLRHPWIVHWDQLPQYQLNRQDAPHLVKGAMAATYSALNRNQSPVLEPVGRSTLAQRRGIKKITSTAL

[4] = test system: 43 cancer cell lines and one normal cell line; experiment: In vitro cell viability assay (intracellular ATP, 72 hour); assay type: cell-based; settings: 10 μM
J-RT3-T3-5 leukemia = experiment: OncoPanel cell proliferation assay (10-day); assay type: cell-based, human
[5] = 10 μM, read-out: % Inhibition of Control Values
[6] = LL/2 (Non-Small Cell Lung Cancer)
[7] = NCI-H460 (Non-Small Cell Lung Cancer)
[8] = PC-6 (Non-Small Cell Lung Cancer)

## Nc1ncnc2c1ncn2[C@@H]1O[C@H](CSCC[C@H](N)C(=O)O)[C@@H](O)[C@H]1O [SAH]
DNMT3B/DNMT3L (h); read-out: Reference IC50
  IC50: 0.045 µM
MLL3(h) complex; read-out: Reference IC50
  IC50: 9 µM
MLL4(h) complex; read-out: Reference IC50
  IC50: 0.55 µM

## CC(C)=CCC[C@@H]1COc2c(C)cc(O)c3c2[C@H]1CC[C@H]3C [Compound 3, 5,18-epoxy-8-hydroxyserrulat-14-ene]
ATAD2B (h) bromodomain
  inhibition at 10 µM: 28%
BRPF1-1 (h) bromodomain
  inhibition at 10 µM: -4%
EP300 (h) bromodomain
  inhibition at 10 µM: 40%
BRD3(1) (h) bromodomain
  inhibition at 10 µM: 13%
CBX8 (h) chromodomain
  inhibition at 10 µM: 23%
H3K4 me2
  inhibition at 10 µM: -9%
DNMT1 (h)
  inhibition at 10 µM: -5%
DNMT3B/DNMT3L (h); [5]
  inhibition at 10 µM: -20%
[1]
  inhibition at 10 µM: -5%
MLL3(h) complex; [5]
  inhibition at 10 µM: -33%
MLL4(h) complex; 10 μM
  % Inhibition of Control Values: −4%
[2]
  inhibition at 10 µM: 3%
[3]
  inhibition at 10 µM: -4%
[4]; all 44 cell lines
  effect on cell viability: no significant effect
[4]; 4T1 (Breast Cancer)
  % Cell growth: 99%
[4]; A375 (Skin)
  % Cell growth: 100%
[4]; A-431 (Skin)
  % Cell growth: 102%
[4]; A-498 (Kidney Cancer)
  % Cell growth: 92%
[4]; ACHN (Kidney Cancer)
  % Cell growth: 105%
[4]; B16-F0 (Melanoma)
  % Cell growth: 116%
[4]; BT474 (Breast Cancer)
  % Cell growth: 108%
[4]; CT26.WT (Colon Cancer)
  % Cell growth: 103%
[4]; DLD-1 (Colon Cancer)
  % Cell growth: 101%
[4]; H33HJ-JA1 (Lymphoma)
  % Cell growth: 90%
[4]; HC-4 (Liver Cancer)
  % Cell growth: 105%
[4]; HCT-15 (Colon Cancer)
  % Cell growth: 116%
[4]; HCT-116 (Colon Cancer)
  % Cell growth: 99%
[4]; HT-29 (Colon Cancer)
  % Cell growth: 101%
[4]; Hep3B (Liver Cancer)
  % Cell growth: 84%
[4]; HepG2 (Liver Cancer)
  % Cell growth: 103%
[4]; K-562 (Leukemia)
  % Cell growth: 93%
[4]; KATO III (Stomach)
  % Cell growth: 105%
[4]; [6]
  % Cell growth: 111%
[4]; LNCaP (Prostrate Cancer)
  % Cell growth: 84%
[4]; MCF7 (Breast Cancer)
  % Cell growth: 112%
[4]; MCF-7 AdrR (Breast Cancer)
  % Cell growth: 101%
[4]; MDA-MB-231 (Breast Cancer)
  % Cell growth: 100%
[4]; MDA-MB-468 (Breast Cancer)
  % Cell growth: 85%
[4]; MES-SA (Uterus)
  % Cell growth: 94%
[4]; MIA PaCa-2 (Pancreas)
  % Cell growth: 106%
[4]; MOLT-4 (Leukemia)
  % Cell growth: 77%
[4]; MV-411 (Leukemia)
  % Cell growth: 76%
[4]; [7]
  % Cell growth: 100%
[4]; OVCAR-3 (Ovarian Cancer)
  % Cell growth: 86%
[4]; PANC-1 (Pancreas)
  % Cell growth: 116%
[4]; PC-3 (Prostrate Cancer)
  % Cell growth: 64%
[4]; [8]
  % Cell growth: 96%
[4]; Ramos (Lymphoma)
  % Cell growth: 129%
[4]; SK-MEL-5 (Melanoma)
  % Cell growth: 118%
[4]; SK-N-MC (Brain)
  % Cell growth: 82%
[4]; SK-OV-3 (Ovarian Cancer)
  % Cell growth: 98%
[4]; SW-620 (Colon Cancer)
  % Cell growth: 107%
[4]; T-47D (Breast Cancer)
  % Cell growth: 119%
[4]; U937 (Lymphoma)
  % Cell growth: 105%
[4]; U-87 MG (Brain)
  % Cell growth: 111%

## CC(C)=CCC[C@H](C)[C@@H]1CC[C@@H](C)c2c1cc(C)c(O)c2O [Compound 4, 7,8-dihydroxyserrulat-14-ene]
[4]; Ramos, H33HJ-JA1, HL-60 (TB), MOLT-4, MV-411, SK-N-MC
  reduction in cell viability: −82 to −94%
[4]; 4T1 (Breast Cancer)
  % Cell growth: 26%
[4]; A375 (Skin)
  % Cell growth: 65%
[4]; A549/ATCC (Non-Small Cell Lung Cancer)
  % Cell growth: 93%
[4]; A-431 (Skin)
  % Cell growth: 107%
[4]; A-498 (Kidney Cancer)
  % Cell growth: 89%
[4]; ACHN (Kidney Cancer)
  % Cell growth: 105%
[4]; B16-F0 (Melanoma)
  % Cell growth: 56%
[4]; BT474 (Breast Cancer)
  % Cell growth: 64%
[4]; CT26.WT (Colon Cancer)
  % Cell growth: 33%
[4]; DLD-1 (Colon Cancer)
  % Cell growth: 68%
[4]; H33HJ-JA1 (Lymphoma)
  % Cell growth: −87%
[4]; HC-4 (Liver Cancer)
  % Cell growth: 91%
[4]; HCT-15 (Colon Cancer)
  % Cell growth: 69%
[4]; HCT-116 (Colon Cancer)
  % Cell growth: 64%
[4]; HT-29 (Colon Cancer)
  % Cell growth: 91%
[4]; Hep3B (Liver Cancer)
  % Cell growth: 93%
[4]; HepG2 (Liver Cancer)
  % Cell growth: 90%
[4]; K-562 (Leukemia)
  % Cell growth: 60%
[4]; KATO III (Stomach)
  % Cell growth: 83%
[4]; [6]
  % Cell growth: 98%
[4]; LNCaP (Prostrate Cancer)
  % Cell growth: 56%
[4]; MCF7 (Breast Cancer)
  % Cell growth: 77%
[4]; MCF-7 AdrR (Breast Cancer)
  % Cell growth: 77%
[4]; MDA-MB-231 (Breast Cancer)
  % Cell growth: 84%
[4]; MDA-MB-468 (Breast Cancer)
  % Cell growth: 52%
[4]; MES-SA (Uterus)
  % Cell growth: 68%
[4]; MIA PaCa-2 (Pancreas)
  % Cell growth: 92%
[4]; MOLT-4 (Leukemia)
  % Cell growth: −93%
[4]; MV-411 (Leukemia)
  % Cell growth: −94%
[4]; [7]
  % Cell growth: 93%
[4]; OVCAR-3 (Ovarian Cancer)
  % Cell growth: 60%
[4]; PANC-1 (Pancreas)
  % Cell growth: 82%
[4]; [8]
  % Cell growth: 4%
[4]; Ramos (Lymphoma)
  % Cell growth: −82%
[4]; SK-MEL-5 (Melanoma)
  % Cell growth: 88%
[4]; SK-N-MC (Brain)
  % Cell growth: −92%
[4]; SK-OV-3 (Ovarian Cancer)
  % Cell growth: 74%
[4]; SW-620 (Colon Cancer)
  % Cell growth: 74%
[4]; T-47D (Breast Cancer)
  % Cell growth: 47%
[4]; U937 (Lymphoma)
  % Cell growth: 20%
[4]; U-87 MG (Brain)
  % Cell growth: 81%
J-RT3-T3-5 leukemia; Homo sapiens, J-RT3-T3-5, read-out: GI50
  GI50: 2.71 µM
J-RT3-T3-5 leukemia; Homo sapiens, J-RT3-T3-5, Leukemia, read-out: Cell Count EC50
  EC50: 2.71 µM
J-RT3-T3-5 leukemia; Homo sapiens, J-RT3-T3-5, Leukemia, read-out: Cell Count GI50
  GI50: 2.71 µM
J-RT3-T3-5 leukemia; Homo sapiens, J-RT3-T3-5, Leukemia, read-out: Cell Count IC50
  IC50: 2.71 µM
J-RT3-T3-5 leukemia; ratio of GI50 values
  times less activity than Compound 1: approximately 270 times
